Test [1] has as its system Human mesenchymal stem cells. The test can be described thus: human mesenchymal stem cell proliferation, MTT. The format is cell-based. The settings on record: α-MEM+10% fetal bovine serum, 2 days, FIG. 3. As for the experimental part:
(§1) Human (rat) mesenchymal stem cells (a cell line obtained according to conventional method) is prepared into a single cell suspension by using a medium (α-MEM+10% fetal bovine serum), and is seeded at 1×10^4/well on 96-well plate. The experiments are divided into medium control group; and medium+small molecular compound Ia group. After culturing for 2 days, MTT (5 mg/ml) 10 ul is added. After incubating for 4 hours, a 100 μl lysis solution (10% SDS, 0.1% NH4Cl) is added. The mixture is incubated overnight. The light absorption value is detected at 490 nm.

Test [2] deals with Embryonic stem cell. Put plainly: embryonic stem cell proliferation, ATP method (CellTiter-Glo). In kind it is cell-based. The settings on record: serum free medium, culturing 1 to 4 days, FIG. 1. As for the experimental part:
(§2) Embryonic stem cell (obtained from oosperm according to the conventional method) is cultured in serum free medium (a conventional medium, such as DMEM/F12, αMEM, 1640, etc.). The experiments are divided into control group, FGF group, neural stem cells proliferation accelerator Ia group, FGF+neural stem cells proliferation accelerator Ia group. After culturing for 1 to 4 days, the kit CellTiter-Glo®Luminescent Cell Viability Assay (Promega) is used to detect cells proliferation by ATP method. The ATP method is performed in accordance with operational steps of the kit.
Therefore, Ia accelerates the proliferation of embryonic stem cells.
(ATP-based viability assays read luminescence as a measure of living cells.)

The subject of test [3] is Rat neural stem cells. The test can be described thus: rat neural stem cell proliferation, ATP method. The format is cell-based. The conditions noted are these: serum free medium; for proliferation rate of neural stem cells in rat: rat adult neural stem cells. How it is done: as §2
Rat neural stem cells are cultured in serum free medium. The experiments are divided into control group, FGF group, small molecular compound Ia group, and FGF+small molecular compound Ia group. The detection is carried out by ATP method (see the method in Example 6). Small molecular compound Ib, Ic, Id, Ie, If, Ig also conduct said experiment.

Test [4] deals with hippocampus cells of AD rat. The test can be described thus: HE staining of hippocampus cells in AD rat. The format is in vivo. The settings on record: AD rat of Example 13, dosage-dependent, FIG. 6 and FIG. 7. As for the experimental part: The rats in Example 13 are perfused and their brains are taken. Rats are anesthetized with 10% chloral hydrate (0.3 ml/100 g). Heparin (200 ug/kg) is injected to the left ventricular, and the right atrial appendage is cut off. 40 ml physiological saline and then 300 ml 4% paraformaldehyde are perfused to the left ventricular to harden the brain. Brain taken: after breaking the neck, the skull is peeled to expose olfactory bulb, peeling it from olfactory bulb with a small curved scissor. After optic nerve is cut off, it is slowly peeled to naturally fall, the adhesion sites are cut off, and are placed into 4% paraformaldehyde solution overnight. It is dehydrated with gradient alcohol and is embedded in olefin, sectioned and floated.
HE staining: dewaxing with dimethylbenzene twice, each for 3 min. Hydration: hydration with descending concentration gradient alcohol: 100%→95%→90%→80%→70%. Dehydration lasts for 2˜3 mins to remove dimethylbenzene during each gradient. Water washing: ethanol is removed. It is dipped into a hematoxylin solution for 5-10 mins, and washed with tap-water. It is dipped into a dilute hydrochloric acid-ethanol solution to carry out color separation for only a few seconds. It is washed with tap-water and dipped into dilute ammonia to make the cell nucleus blue for 3-5 mins. […] It is mounted with neutral resin, and observed by […].

Test [5] has as its system rat mesenchymal stem cells. The test can be described thus: rat mesenchymal stem cell proliferation, MTT. In kind it is cell-based. The settings on record: α-MEM+10% fetal bovine serum, 2 days, FIG. 4. How it is done:
as §1

In test [6] the test system is AD rat model (aggregated Aβ1-40 injected in hippocampus). The test can be described thus: pharmacodynamic evaluation in AD rat (Morris water maze). The format is in vivo. The conditions noted are these: tail vein injection, administration for 14 days, FIG. 5. How it is done: Establishment of AD rat model: in the experiment, stereotaxic instrument and micro-injection pump are used to inject aggregated Aβ1-40 (5 ug/ul) 2 ul (0.4 ul/min, 5 min) to the dorsal blade of the dentate gyrus in the hippocampus of rat (3.0 mm behind anterior fontanelle, open at right 2.0 mm, subdural 3.2 mm, Incisor hook plane is 2.4 mm lower than the interaural line plane), the model is established after 2 weeks. […]
Pharmacodynamic experiment (Morris water maze): the experimental apparatus is a rustless steel round pool with a height of 60 cm, and a diameter of 150 cm (both the bottom and wall of the pool are covered by black paster to facilitate the video camera for distinguishing the white rats in pool), the video camera is connected to a computer; the pool is divided into four quadrants, and a platform is placed in the middle of the first quadrant. […] The experimental rats enter water from four different positions, the video camera records the swimming paths of each experimental rats, and the experimental results are analyzed by image processing software. […] During the experiment, the time the rat taken from entering water to climbing onto the platform (i.e., escape latency) is recorded, and the rat is allowed to stay on the platform for 10 sec. […] The escape latency of the animals, times of rearing up, and spatial bias are recorded and compared.

Test [7] concerns Human neural stem cells. Put plainly: human neural stem cell proliferation, MTT. In kind it is cell-based. The settings on record: DMEM/F12+10% fetal bovine serum+EGF, bFGF, 4 days, FIG. 2. As for the experimental part:
Human neural stem cells (provided according to conventional methods by Peking University Stem Cell Research Center) is prepared into a single cell suspension by using a medium (DMEM/F12+10% fetal bovine serum+20 ng/mIEGF, bFGF), and is seeded at 2×10^4/well on 96-well plate. The experiments are divided into medium control group (a group without adding a medicine); medium+small molecular compound Ia group (a group with a medicine added). After culturing for 4 days, MTT (5 mg/ml) 10 ul is added. After incubating for 4 hours, a 100 μl lysis solution (10% SDS, 0.1% NH4Cl) is added. The mixture is incubated overnight. The light absorption value is detected at 490 nm.
The experimental results are shown in FIG. 2, the height of the histogram represents absorbance, which is proportional to the number of cells (which has the same vertical coordinate in the MTT method, and is not explained one by one).

This is an account of results in patent publication US8618145B2, “Small molecular compounds capable of accelerating proliferation of stem cells and use thereof” (priority 2009, dated 2013).

`NNC(=S)Nc1ccc(-c2nnc(S)o2)cc1` [Ia, 4-(4-(5-mercapto-1,3,4-oxadiazol-2-yl)phenyl) thiosemicarbazide]: in test [1], the “human mesenchymal stem cell proliferation” value is “accelerates human mesenchymal stem cell proliferation”. Also, the “embryonic stem cell proliferation (chemiluminescence intensity)” value in test [2] was “significantly increased”. In addition, in test [3], the “proliferation rate of neural stem cells in rat” value (“proliferation rate” below) amounted to 4.2 and the “effect on rat neural stem cell proliferation (in words)” value (from here on “effect”) is reported as “accelerate rat neural stem cell proliferation”. In addition, the “degeneration of hippocampus cells (HE staining)” value in test [4] is “less seriously degenerated”. Moreover, in test [5], the “rat mesenchymal stem cell proliferation” value is “accelerates rat mesenchymal stem cell proliferation”. Further, the “ability of learning and memory (water maze)” value in test [6] was “improved ability of learning and memory”. Also, the “human neural stem cell proliferation (absorbance at 490 nm)” value in test [7] was “accelerates human neural stem cell proliferation”.

In the case of `CSc1nnc(-c2ccc(NC(=S)NN)cc2)o1` [Ib, 4-(4-(5-(methylthio)-1,3,4-oxadiazol-2-yl)phenyl) thiosemicarbazide], in test [3], the “proliferation rate” value turned out to be 2 and the “effect” value is given as “accelerate rat neural stem cell proliferation”.

As to `CNC(=S)Nc1ccc(-c2nnc(SC)o2)cc1` [Ic, 1-methyl-3-(4-(5-(methylthio)-1,3,4-oxadiazol-2-yl)phenyl)thiourea], in test [3], the “proliferation rate” value is recorded as 1.5 and the “effect” value is listed as “accelerate rat neural stem cell proliferation”.

Consider `NNC(=O)Nc1ccc(-c2nnc(S)o2)cc1` [Id, 4-(4-(5-mercapto-1,3,4-oxadiazol-2-yl)phenyl) semicarbazide], for which, in test [3], the “proliferation rate” value is given as 1.7 and the “effect” value is “accelerate rat neural stem cell proliferation”.

Take `S=C(NNc1ccc(Cl)cc1)Nc1ccc(-c2nnc(S)o2)cc1` [Ie]: in test [3], the “proliferation rate” value is 2.5 and the “effect” value is recorded as “accelerate rat neural stem cell proliferation”.

Regarding `COc1ccc(NNC(=S)Nc2ccc(-c3nnc(S)o3)cc2)cc1` [If], in test [3], the “proliferation rate” value was 2.3 and the “effect” value was “accelerate rat neural stem cell proliferation”.

`CNC(=S)Nc1ccc(-c2nnc(O)o2)cc1` [Ig, 1-methyl-3-(4-(5-oxo-4,5-dihydro-1,3,4-oxadiazol-2-yl)phenyl)thiourea]: in test [3], the “proliferation rate” value is listed as 2.4 and the “effect” value is “accelerate rat neural stem cell proliferation”.
